# Assay results: patent publication US20100022491A1, “4-HYDROXY-2-OXO-2,3-DIHYDRO-1,3-BENZOTHIAZOL-7YL COMPOUNDS FOR MODULATION OF B2-ADRENORECEPTOR ACTIVITY” (ASTRAZENECA AB, priority 2006, published 2010)
# Structures can show the parent of a compound that is named as a salt.
# Target: T1, recombinant human α1D receptor (Homo sapiens, UniProt P25100)
# T1 construct: expressed in transfected cells; host or cells: HEK293
# T1 sequence (P25100 1-572): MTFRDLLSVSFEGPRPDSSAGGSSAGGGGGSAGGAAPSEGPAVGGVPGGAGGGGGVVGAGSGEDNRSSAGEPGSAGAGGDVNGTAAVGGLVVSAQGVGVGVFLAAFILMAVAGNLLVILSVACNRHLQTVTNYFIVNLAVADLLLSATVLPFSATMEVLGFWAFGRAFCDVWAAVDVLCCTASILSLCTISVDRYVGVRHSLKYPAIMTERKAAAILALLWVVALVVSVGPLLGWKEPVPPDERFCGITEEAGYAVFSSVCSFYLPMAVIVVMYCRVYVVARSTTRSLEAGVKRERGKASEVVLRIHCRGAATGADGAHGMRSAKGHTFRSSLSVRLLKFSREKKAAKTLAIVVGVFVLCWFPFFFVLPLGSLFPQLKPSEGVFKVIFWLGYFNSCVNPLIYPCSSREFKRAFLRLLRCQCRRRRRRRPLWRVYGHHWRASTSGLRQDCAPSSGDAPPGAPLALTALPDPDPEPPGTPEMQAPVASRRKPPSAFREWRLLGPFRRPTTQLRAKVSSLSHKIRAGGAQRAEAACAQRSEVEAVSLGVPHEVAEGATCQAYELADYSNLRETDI
# Test: Adrenergic α1D selectivity binding assay ([3H]-prazosin)
# Details: inhibition of [3H]-prazosin (0.3 nM) binding, HEK293 membranes
# Procedure: Membranes were prepared from human embryonic kidney 293 (HEK293) cells expressing recombinant human α1D receptor. These were diluted in Assay Buffer (50 mM HEPES, 1 mM EDTA, 0.1% gelatin, pH 7.4) to provide a final concentration of membranes that gave a clear window between maximum and minimum specific binding.
# Assays were performed in U-bottomed 96-well polypropylene plates. 10 μL [^3H]-prazosin (0.3 nM final concentration) and 10 μL of test compound (10× final concentration) were added to each test well. For each assay plate 8 replicates were obtained for [^3H]-prazosin binding in the presence of 10 μL vehicle (10% (v/v) DMSO in Assay Buffer; defining maximum binding) or 10 μL BMY7378 (10 μM final concentration; defining non-specific binding (NSB)). Membranes were then added to achieve a final volume of 100 μL. The plates were incubated for 2 hours at room temperature and then filtered onto PEI coated GF/B filter plates, pre-soaked for 1 hour in Assay Buffer, using a 96-well plate Tomtec cell harvester. Five washes with 250 μL wash buffer (50 mM HEPES, 1 mM EDTA, pH 7.4) were performed at 4° C. to remove unbound radioactivity. The plates were dried then sealed from underneath using Packard plate sealers and MicroScint-O (50 μL) was added to each well. The plates were sealed (TopSeal A) and filter-bound radioactivity was measured with a scintillation counter (TopCount, Packard BioScience) using a 3-minute counting protocol.
# Total specific binding (B0) was determined by subtracting the mean NSB from the mean maximum binding. NSB values were also subtracted from values from all other wells. […] Data was fitted to a four parameter logistic equation to determine the compound potency, which was expressed as pIC50 (negative log molar concentration inducing 50% inhibition of [^3H]-prazosin binding).
row,Compound,α1 bind pIC50
1,"O=C(CCNCCc1cccc(F)c1F)N(CCNCCc1ccc(O)c2[nH]c(=O)sc12)C1CCCCC1 [Example 93, N-Cyclohexyl-N^3-[2-(2,3-difluorophenyl)ethyl]-N-(2-{[2-(4-hydroxy-2-oxo-2,3-dihydro-1,3-benzothiazol-7-yl)ethyl]amino}ethyl)-β-alaninamide dihydrobromide salt]",6.7

# Same assay, conditions: inhibition of [3H]-prazosin (0.3 nM) binding, HEK293 membranes; read-out: α1 bind pIC50 (converted)
row,IC50,Compound
1,200 nM,"CC(C)(CN(CCNCCc1ccc(O)c2[nH]c(=O)sc12)C(=O)CCNCCc1ccccc1)c1ccccc1 [Example 45, N^1-(2-{[2-(4-Hydroxy-2-oxo-2,3-dihydro-1,3-benzothiazol-7-yl)ethyl]amino}ethyl)-N^1-(2-methyl-2-phenylpropyl)-N^3-(2-phenylethyl)-β-alaninamide bis-trifluoroacetic acid salt]"
2,251 nM,"Cc1ccccc1CCNCCC(=O)N(CCNCCc1ccc(O)c2[nH]c(=O)sc12)C1CCOCC1 [Example 27, N-(2-{[2-(4-Hydroxy-2-oxo-2,3-dihydro-1,3-benzothiazol-7-yl)ethyl]amino}ethyl)-N^3-[2-(2-methylphenyl)ethyl]-N-(tetrahydro-2H-pyran-4-yl)-β-alaninamide bis-trifluoroacetic acid salt]"
3,200 nM,"O=C(CCNCCc1cccc(O)c1)N(CCNCCc1ccc(O)c2[nH]c(=O)sc12)C1CCCCCC1 [Example 37, N-Cycloheptyl-N-(2-{[2-(4-hydroxy-2-oxo-2,3-dihydro-1,3-benzothiazol-7-yl)ethyl]amino}ethyl)-N^3-[2-(3-hydroxyphenyl)ethyl]-β-alaninamide bis-trifluoroacetic acid salt]"
4,398 nM,"O=C(CCNCCc1ccc(F)c(F)c1)N(CCNCCc1ccc(O)c2[nH]c(=O)sc12)C1CCCCC1 [Example 73, N^1-Cyclohexyl-N^3-[2-(3,4-difluorophenyl)ethyl]-N^1-(2-{[2-(4-hydroxy-2-oxo-2,3-dihydro-1,3-benzothiazol-7-yl)ethyl]amino}ethyl)-β-alaninamide bis-trifluoroacetic acid salt]"
5,126 nM,"O=C(CCNCCc1ccc(F)c(F)c1)N(CCNCCc1ccc(O)c2[nH]c(=O)sc12)C1CCCCCC1 [Example 53, N^1-Cycloheptyl-N^1-[2-(3,4-difluorophenyl)ethyl]-N^1-(2-{[2-(4-hydroxy-2-oxo-2,3-dihydro-1,3-benzothiazol-7-yl)ethyl]amino}ethyl)-β-alaninamide bis-trifluoroacetic acid salt]"
6,398 nM,"O=C(CCNCCc1ccc(Cl)s1)N(CCNCCc1ccc(O)c2[nH]c(=O)sc12)C1CCCCC1 [Example 72, N^3-[2-(5-Chloro-2-thienyl)ethyl]-N^1-cyclohexyl-N^1-(2-{[2-(4-hydroxy-2-oxo-2,3-dihydro-1,3-benzothiazol-7-yl)ethyl]amino}ethyl)-β-alaninamide bis-trifluoroacetic acid salt]"
7,79.4 nM,"O=C(CCNCCc1cccc(Cl)c1)N(CCNCCc1ccc(O)c2[nH]c(=O)sc12)C1CCCCCC1 [Example 50, N^3-[2-(3-Chlorophenyl)ethyl]-N^1-cycloheptyl-N^1-(2-{[2-(4-hydroxy-2-oxo-2,3-dihydro-1,3-benzothiazol-7-yl)ethyl]amino}ethyl)-β-alaninamide bis-trifluoroacetic acid salt]"
8,501 nM,"O=C(CCNCCc1cccc(Cl)c1)N(CCNCCc1ccc(O)c2[nH]c(=O)sc12)C1CCC(F)(F)CC1 [Example 47, N^3-[2-(3-Chlorophenyl)ethyl]-N^1-(4,4-difluorocyclohexyl)-N^1-(2-{[2-(4-hydroxy-2-oxo-2,3-dihydro-1,3-benzothiazol-7-yl)ethyl]amino}ethyl)-β-alaninamide bis-trifluoroacetic acid salt]"
9,251 nM,"O=C(CCNC[C@H](O)c1ccccc1)N(CCNCCc1ccc(O)c2[nH]c(=O)sc12)C1CCCCC1 [Example 75, N^1-Cyclohexyl-N^1-(2-{[2-(4-hydroxy-2-oxo-2,3-dihydro-1,3-benzothiazol-7-yl)ethyl]amino}ethyl)-N^3-[(2R)-2-hydroxy-2-phenylethyl]-β-alaninamide bis-trifluoroacetic acid salt]"
10,631 nM,"O=C(CCNCCc1ccc(Cl)cc1)N(CCNCCc1ccc(O)c2[nH]c(=O)sc12)C1CCC(F)(F)CC1 [Example 48, N^3-[2-(4-Chlorophenyl)ethyl]-N^1-(4,4-difluorocyclohexyl)-N^1-(2-{[2-(4-hydroxy-2-oxo-2,3-dihydro-1,3-benzothiazol-7-yl)ethyl]amino}ethyl)-β-alaninamide bis-trifluoroacetic acid salt]"
11,200 nM,"O=C(CCNCCc1ccc(O)cc1)N(CCNCCc1ccc(O)c2[nH]c(=O)sc12)C1CCCCC1 [Example 34, N-Cyclohexyl-N-(2-{[2-(4-hydroxy-2-oxo-2,3-dihydro-1,3-benzothiazol-7-yl)ethyl]amino}ethyl)-N^3-[2-(4-hydroxyphenyl)ethyl]-β-alaninamide bis-trifluoroacetic acid salt]"
12,100 nM,"O=C(CCNCCc1ccccc1)N(CCNCCc1ccc(O)c2[nH]c(=O)sc12)CC12CC3CC(CC(C3)C1)C2 [Example 59, N^1-(1-Adamantylmethyl)-N^1-(2-{[2-(4-hydroxy-2-oxo-2,3-dihydro-1,3-benzothiazol-7-yl)ethyl]amino}ethyl)-N^3-(2-phenylethyl)-β-alaninamide bis-trifluoroacetic acid salt]"
13,79.4 nM,"CCCC(CCC)N(CCNCCc1ccc(O)c2[nH]c(=O)sc12)C(=O)CCNCCc1ccc(F)cc1 [Example 64, N^3-[2-(4-Fluorophenyl)ethyl]-N^1-(2-{[2-(4-hydroxy-2-oxo-2,3-dihydro-1,3-benzothiazol-7-yl)ethyl]amino}ethyl)-N^1-(1-propylbutyl)-β-alaninamide bis-trifluoroacetic acid salt]"
14,100 nM,"O=C(CCNCCc1cccs1)N(CCNCCc1ccc(O)c2[nH]c(=O)sc12)C1CCCCCC1 [Example 52, N^1-Cycloheptyl-N^1-(2-{[2-(4-hydroxy-2-oxo-2,3-dihydro-1,3-benzothiazol-7-yl)ethyl]amino}ethyl)-N^3-[2-(2-thienyl)ethyl]-β-alaninamide bis-trifluoroacetic acid salt]"
15,158 nM,"O=C(CCNCCc1cccs1)N(CCNCCc1ccc(O)c2[nH]c(=O)sc12)C1CCCCC1 [Example 35, N-Cyclohexyl-N-(2-{[2-(4-hydroxy-2-oxo-2,3-dihydro-1,3-benzothiazol-7-yl)ethyl]amino}ethyl)-N^3-[2-(2-thienyl)ethyl]-β-alaninamide bis-trifluoroacetic acid salt]"
16,158 nM,"O=C(CCNCCc1ccccc1Cl)N(CCNCCc1ccc(O)c2[nH]c(=O)sc12)C1CCC(F)(F)CC1 [Example 46, N^3-[2-(2-Chlorophenyl)ethyl]-N^1-(4,4-difluorocyclohexyl)-N^1-(2-{[2-(4-hydroxy-2-oxo-2,3-dihydro-1,3-benzothiazol-7-yl)ethyl]amino}ethyl)-β-alaninamide bis-trifluoroacetic acid salt]"
17,63.1 nM,"O=C(CCNCCc1cc(F)ccc1F)N(CCNCCc1ccc(O)c2[nH]c(=O)sc12)C1CCCCCC1 [Example 83, N^1-Cycloheptyl-N^3-[2-(2,5-difluorophenyl)ethyl]-N^1-(2-{[2-(4-hydroxy-2-oxo-2,3-dihydro-1,3-benzothiazol-7-yl)ethyl]amino}ethyl)-β-alaninamide bis-trifluoroacetic acid salt]"
18,100 nM,"CCCC[C@H](C)N(CCNCCc1ccc(O)c2[nH]c(=O)sc12)C(=O)CCNCCc1ccccc1 [Example 102, N-(2-{[2-(4-Hydroxy-2-oxo-2,3-dihydro-1,3-benzothiazol-7-yl)ethyl]amino}ethyl)-N-[(1S)-1-methylpentyl]-N^3-(2-phenylethyl)-β-alaninamide bis-trifluoroacetic acid salt]"

row,Compound,IC50
1,"O=C(CCNCCc1ccc(Cl)c(Cl)c1)N(CCNCCc1ccc(O)c2[nH]c(=O)sc12)C1CCOCC1 [Example 24, N^3-[2-(3,4-Dichlorophenyl)ethyl]-N-(2-{[2-(4-hydroxy-2-oxo-2,3-dihydro-1,3-benzothiazol-7-yl)ethyl]amino}ethyl)-N-(tetrahydro-2H-pyran-4-yl)-β-alaninamide bis-trifluoroacetic acid salt]",631 nM
